Laboratory results reported in patent publication EP0031801A2, “6-Substituted 4-(2',3'-dichlorophenyl)-2-methyl-1,4-dihydropyridine-3,5-dicarboxylic acid diesters having hypotensive properties as well as process for their preparation and pharmaceutical preparations containing same” (priority 1979, dated 1981).

Key:
[1] = tested on: isolated portal vein preparation / paced isolated papillary heart muscle preparation; assay: Specificity towards smooth muscle relaxation: isolated portal vein versus paced papillary heart muscle in an organ bath; set-up: species or system Wistar rats; details: "separation" value: averaged difference of -log ED50 portal vein (vasodilatation) and -log ED50 papillary muscle (myocardial depression), transformed into numeric format
Procedure: The specificity towards smooth muscle relaxation was examined as follows: The isolated portal vein preparation of Wistar rats was mounted in an organ bath together with a paced isolated papillary heart muscle preparation of the same animal. The integrated contractile activity of the portal vein smooth muscle and the peak force amplitude of the papillary, myocardial, preparation were recorded. The respective activities during a 30 min control period were set as 100 per cent and the ensuing activities under the influence of an agent under study were expressed as a percentage thereof. The agent was administered at 10 min intervals and the potency for vasodilatation(-log ED50 of-portal vein) and that of myocardial depression (-log ED50 of papillary muscle) were determined by interpolation from the concentration-effect relationships determined in each experiment. A "separation" value was determined for each compound by averaging the differences of the -log ED50 values for vasodilatation and myocardial depression, respectively, obtained in the experiments. This logarithmic separation value was transformed into numeric format and entered into table 2.

[2] = tested on: spontaneously hypertensive rats (SHR) of the Okamoto strain; assay: Antihypertensive effect in conscious, unrestrained spontaneously hypertensive rats, oral dosing; type: in vivo; details: Rattus norvegicus; dose giving 20 per cent reduction of mean arterial BP, by interpolation; oral intubation, cumulated doses at 2 hour intervals, suspended in methocel solution
Procedure: The antihypertensive effect of the compounds was tested in conscious, unrestrained spontaneously hypertensive rats (SHR) of the Okamoto strain. The animals had been prepared by prior implantation of indwelling catheters in the abdominal aorta via the femoral artery. Mean arterial blood pressure (MABP) and heart rate were continuously monitored. After a 2 hour control period the compound under study was administered by oral intubation at 2 hour intervals, suspended in methocel solution (5 ml/kg bodyweight). The cumulated doses were […] bodyweight. The antihypertensive response, i.e. the BP reduction to each dose, was expressed as a percentage of the initial control BP level and plotted against the dose on a logarithmic scale. The dose which would give 20 per cent BP reduction was then determined by interpolation.

SMILES | Ratio heart vasc. [1] | ED20 [2]
CCOC(=O)C1=C(C(C)C)NC(C)=C(C(=O)OC)C1c1cccc(Cl)c1Cl (stereo not drawn) [Example 1, 2-isopropyl-4-(2,3-dichlorophenyl)-6-methyl-1,4-dihydropyridine-3,5-dicarboxylic acid-3-ethylester-5-methylester] | 98 | 2.5 µmol/kg
CCOC(=O)C1=C(COC)NC(C)=C(C(=O)OC)C1c1cccc(Cl)c1Cl (stereo not drawn) [Example 2, 2-methoxymethyl-4-(2,3-dichlorophenyl)-6-methyl-1,4-dihydropyridine-3,5-dicarboxylic acid-3-ethylester-5-methylester] | 158 | 2 µmol/kg
COC(=O)C1=C(C)NC(C)=C(C(=O)OC)C1c1ccccc1[N+](=O)[O-] [Nifedipin, 2,6-dimethyl-4-(2-nitrophenyl)-1,4-dihydropyridine-3,5-dicarboxylic acid-3,5-dimethylester, reference compound] | 15 | 5 µmol/kg
